Measurements as given in the NIST ThermoML archive (doi:10.1016/j.jct.2010.10.018).

Assay: xn = mol fraction of the nth substance listed
Settings: 101 kPa, Liquid, Vibrating tube method

CC(C)(C)O [2-methylpropan-2-ol] + O
Settings | mass density [kg/m3]
298.15 K, x1 = 0.6029 | 813.22
298.15 K, x1 = 0.6909 | 803.57
298.15 K, x1 = 0.726 | 800.1
298.15 K, x1 = 0.7999 | 794.07
298.15 K, x1 = 0.8711 | 788.3
298.15 K, x1 = 0.9183 | 785.07
298.15 K, x1 = 0.9574 | 782.74
298.15 K, x1 = 0.9652 | 782.29
298.15 K, x1 = 0.9795 | 781.56
298.15 K, x1 = 0.9873 | 781.18
298.15 K, x1 = 0.9935 | 780.83
298.15 K, x1 = 0.9963 | 780.69
299.15 K, x1 = 0.9821 | 780.36
299.15 K, x1 = 0.9944 | 779.76
299.15 K, x1 = 0.996 | 779.69
299.15 K, x1 = 1 | 779.48
303.15 K, x1 = 0.9821 | 776.31
303.15 K, x1 = 0.9944 | 775.66
303.15 K, x1 = 0.996 | 775.58
303.15 K, x1 = 1 | 775.39
308.15 K, x1 = 0.00089 | 993.36
308.15 K, x1 = 0.00146 | 992.96
308.15 K, x1 = 0.00269 | 992.08
308.15 K, x1 = 0.00403 | 991.15
308.15 K, x1 = 0.00513 | 990.39
308.15 K, x1 = 0.00761 | 988.7
308.15 K, x1 = 0.01405 | 984.86
308.15 K, x1 = 0.0248 | 978.65
308.15 K, x1 = 0.03494 | 973.48
308.15 K, x1 = 0.04241 | 969.43
308.15 K, x1 = 0.05218 | 963.7
308.15 K, x1 = 0.05887 | 959.67
308.15 K, x1 = 0.06973 | 953.09
308.15 K, x1 = 0.1125 | 928.56
308.15 K, x1 = 0.1566 | 906.33
308.15 K, x1 = 0.208 | 886.22
308.15 K, x1 = 0.2408 | 874.67
308.15 K, x1 = 0.3023 | 856.97
308.15 K, x1 = 0.3451 | 846.68
308.15 K, x1 = 0.4045 | 834.17
308.15 K, x1 = 0.4225 | 830.99
308.15 K, x1 = 0.4653 | 823.8
308.15 K, x1 = 0.5344 | 812.83
308.15 K, x1 = 0.6029 | 803.86
308.15 K, x1 = 0.6909 | 794.03
308.15 K, x1 = 0.726 | 790.54
308.15 K, x1 = 0.7999 | 784.37
308.15 K, x1 = 0.8711 | 778.45
308.15 K, x1 = 0.9183 | 775.09
308.15 K, x1 = 0.9574 | 772.63
308.15 K, x1 = 0.9652 | 772.13
308.15 K, x1 = 0.9795 | 771.34
308.15 K, x1 = 0.9821 | 771.14
308.15 K, x1 = 0.9944 | 770.47
308.15 K, x1 = 0.996 | 770.38
308.15 K, x1 = 1 | 770.14
313.15 K, x1 = 0.9821 | 765.88
313.15 K, x1 = 0.9944 | 765.18
313.15 K, x1 = 0.996 | 765.09
313.15 K, x1 = 1 | 764.84
318.15 K, x1 = 0.9821 | 760.53
318.15 K, x1 = 0.9944 | 759.8
318.15 K, x1 = 0.996 | 759.71
318.15 K, x1 = 1 | 759.46
323.15 K, x1 = 0.00089 | 987.36
323.15 K, x1 = 0.00146 | 986.95
323.15 K, x1 = 0.00269 | 986.1
323.15 K, x1 = 0.00403 | 985.16
323.15 K, x1 = 0.00513 | 984.39
323.15 K, x1 = 0.00761 | 982.75
323.15 K, x1 = 0.01405 | 978.38
323.15 K, x1 = 0.0248 | 971.52
323.15 K, x1 = 0.03494 | 965.43
323.15 K, x1 = 0.04241 | 960.77
323.15 K, x1 = 0.05218 | 954.06
323.15 K, x1 = 0.05887 | 949.57
323.15 K, x1 = 0.06973 | 942.66
323.15 K, x1 = 0.1125 | 916.92
323.15 K, x1 = 0.1566 | 893.97
323.15 K, x1 = 0.208 | 873.34
323.15 K, x1 = 0.2408 | 861.46
323.15 K, x1 = 0.3023 | 843.45
323.15 K, x1 = 0.3451 | 832.95
323.15 K, x1 = 0.4045 | 820.18
323.15 K, x1 = 0.4225 | 816.91
323.15 K, x1 = 0.4653 | 809.6
323.15 K, x1 = 0.5344 | 798.37
323.15 K, x1 = 0.6029 | 789.18
323.15 K, x1 = 0.6909 | 779.13
323.15 K, x1 = 0.726 | 775.51
323.15 K, x1 = 0.7999 | 769.18
323.15 K, x1 = 0.8711 | 763
323.15 K, x1 = 0.9183 | 759.52
323.15 K, x1 = 0.9574 | 756.76
323.15 K, x1 = 0.9652 | 756.21
323.15 K, x1 = 0.9795 | 755.31
323.15 K, x1 = 0.9821 | 755.09
323.15 K, x1 = 0.9944 | 754.31
323.15 K, x1 = 0.996 | 754.22
323.15 K, x1 = 1 | 753.94
333.15 K, x1 = 0.00089 | 982.51
333.15 K, x1 = 0.00146 | 982.1
333.15 K, x1 = 0.00269 | 981.23
333.15 K, x1 = 0.00403 | 980.3
333.15 K, x1 = 0.00513 | 979.52
333.15 K, x1 = 0.00761 | 977.87
333.15 K, x1 = 0.01405 | 973.36
333.15 K, x1 = 0.0248 | 965.88
333.15 K, x1 = 0.03494 | 959.46
333.15 K, x1 = 0.04241 | 954.72
333.15 K, x1 = 0.05218 | 947.17
333.15 K, x1 = 0.05887 | 942.74
333.15 K, x1 = 0.06973 | 935.49
333.15 K, x1 = 0.1125 | 908.96
333.15 K, x1 = 0.1566 | 885.44
333.15 K, x1 = 0.208 | 864.42
333.15 K, x1 = 0.2408 | 852.37
333.15 K, x1 = 0.3023 | 834.38
333.15 K, x1 = 0.3451 | 823.51
333.15 K, x1 = 0.4045 | 810.41
333.15 K, x1 = 0.4225 | 807.23
333.15 K, x1 = 0.4653 | 799.78
333.15 K, x1 = 0.5344 | 788.31
333.15 K, x1 = 0.6029 | 778.96
333.15 K, x1 = 0.6909 | 768.71
333.15 K, x1 = 0.726 | 765.01
333.15 K, x1 = 0.7999 | 758.52
333.15 K, x1 = 0.8711 | 752.17
333.15 K, x1 = 0.9183 | 748.6
333.15 K, x1 = 0.9574 | 745.7
333.15 K, x1 = 0.9652 | 745.12
333.15 K, x1 = 0.9795 | 744.15
333.15 K, x1 = 0.9821 | 743.92
333.15 K, x1 = 0.9944 | 743.11
333.15 K, x1 = 0.996 | 743.02
333.15 K, x1 = 1 | 742.7
348.15 K, x1 = 0.00089 | 974.22
348.15 K, x1 = 0.00146 | 973.75
348.15 K, x1 = 0.00269 | 973.04
348.15 K, x1 = 0.00403 | 972.25
348.15 K, x1 = 0.00513 | 971.5
348.15 K, x1 = 0.00761 | 969.81
348.15 K, x1 = 0.01405 | 965
348.15 K, x1 = 0.0248 | 957.02
348.15 K, x1 = 0.03494 | 949.37
348.15 K, x1 = 0.04241 | 944.24
348.15 K, x1 = 0.05218 | 936.2
348.15 K, x1 = 0.05887 | 931.84
348.15 K, x1 = 0.06973 | 924.4
348.15 K, x1 = 0.1125 | 896.84
348.15 K, x1 = 0.1566 | 872.83
348.15 K, x1 = 0.208 | 850.42
348.15 K, x1 = 0.2408 | 838.25
348.15 K, x1 = 0.3023 | 820.05
348.15 K, x1 = 0.3451 | 808.66
348.15 K, x1 = 0.4045 | 795.17
348.15 K, x1 = 0.4225 | 792.36
348.15 K, x1 = 0.4653 | 784.18
348.15 K, x1 = 0.5344 | 772.8
348.15 K, x1 = 0.6029 | 763.18
348.15 K, x1 = 0.6909 | 752.22
348.15 K, x1 = 0.726 | 748.55
348.15 K, x1 = 0.7999 | 741.72
348.15 K, x1 = 0.8711 | 734.96
348.15 K, x1 = 0.9183 | 731.4
348.15 K, x1 = 0.9574 | 728.29
348.15 K, x1 = 0.9652 | 727.67
348.15 K, x1 = 0.9795 | 726.63
348.15 K, x1 = 0.9821 | 726.41
348.15 K, x1 = 0.9944 | 725.51
348.15 K, x1 = 0.996 | 725.4
348.15 K, x1 = 1 | 725.05
